The source of these data is US20190336490A1, “COMPOSITIONS AND METHODS FOR INCREASING REMYELINATION” (Frequency Therapeutics, Inc., priority 2018, published 2019).

One assay concerns the target T1, muscarinic M1 receptor (Homo sapiens, UniProt P11229).
T1 sequence (P11229 1-460): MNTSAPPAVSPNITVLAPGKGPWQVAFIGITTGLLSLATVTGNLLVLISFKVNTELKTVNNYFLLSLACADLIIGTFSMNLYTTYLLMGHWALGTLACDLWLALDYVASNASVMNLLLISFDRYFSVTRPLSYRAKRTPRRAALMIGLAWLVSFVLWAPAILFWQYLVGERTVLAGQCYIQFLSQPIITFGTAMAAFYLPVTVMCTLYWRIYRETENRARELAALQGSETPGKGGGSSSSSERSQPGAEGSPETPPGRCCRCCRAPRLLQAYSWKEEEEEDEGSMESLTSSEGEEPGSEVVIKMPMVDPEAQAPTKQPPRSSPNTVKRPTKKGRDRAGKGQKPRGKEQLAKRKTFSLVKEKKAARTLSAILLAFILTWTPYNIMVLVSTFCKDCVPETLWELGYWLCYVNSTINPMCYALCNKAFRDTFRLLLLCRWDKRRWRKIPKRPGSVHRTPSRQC
To be noted: cited from earlier work.

Assay [1] relates to OPC (oligodendrocyte precursor cell). In words: OPC Cell Activity. In kind it is cell-based.
For assay [2], the system named is Rat primary optic nerve oligodendrocyte progenitor cells (OPCs). In words: OPC differentiation assay (MBP staining). In kind it is cell-based. The following applies: 6 days.

On to `O=C(CCNS(=O)(=O)c1cccc2nsnc12)N1CCN(c2ccncc2)CC1` [VU0409774], for which the “In vitro M1 (Conc)” value on muscarinic M1 receptor is 690 nM.

For `O=C(O[C@H]1CN2CCC1CC2)N1CCc2ccccc2[C@@H]1c1ccccc1` [Solifenacin], the “In vitro M1 (Conc)” value at muscarinic M1 receptor is given as 25 nM. In addition, in assay [1] (Table 1, in words), the “OPC Cell Activity” value was “Active”. For the compound `CCCOC(C(=O)OC1CCN(C)CC1)(c1ccccc1)c1ccccc1` [Propiverine], at muscarinic M1 receptor, the “In vitro M1 (Conc)” value is 619 nM. In assay [1] (Table 1), the “OPC Cell Activity” value is recorded as 420 nM. `c1ccc2c(c1)Sc1ccccc1N2CC1CN2CCC1CC2` (stereo not shown) [Mequitazine]: the “In vitro M1 (Conc)” value at muscarinic M1 receptor is on record as 5.0 nM. `CN1CCC(OC(c2ccccc2)c2ccccc2)CC1` [Diphenylpyraline]: in assay [1] (Table 1, in words), the “OPC Cell Activity” value is “Active”. Still for that read-out and setting: in the case of `CCN1CCCC(OC(=O)C(c2ccccc2)c2ccccc2)C1` (stereo not shown) [Piperidolate] it was “Active”. On to `c1cc2c(cc1-c1noc(CC3CCN(C4CCC4)CC3)n1)OCO2` [GSK-247246], for which the “OPC Cell Activity” value in assay [1] (Table 2) was 25 to 100 nM. Regarding `CN1[C@@H]2C[C@@H](OC(=O)[C@H](CO)c3ccccc3)C[C@H]1[C@@H]1O[C@@H]12` [Scopolamine], the “OPC Cell Activity” value in assay [1] (Table 1) is 5100 nM. For the compound `CN1[C@@H]2CC[C@H]1C[C@@H](OC(=O)C(CO)c1ccccc1)C2` (stereo partly shown) [Atropine], the “OPC Cell Activity” value in assay [1] (Table 1) was found to be 5700 nM. In the case of `CC(C)[N+]1(C)[C@@H]2CC[C@H]1C[C@@H](OC(=O)C(CO)c1ccccc1)C2` (stereo partly shown) [Ipratropium], on muscarinic M1 receptor, the “In vitro M1 (Conc)” value was 1.31 nM. Further, in assay [1] (Table 1, in words), the “OPC Cell Activity” value is listed as “Active”. Take `Clc1ccc(Cn2c(CN3CCCC3)nc3ccccc32)cc1` [Clemizole]: the “OPC Cell Activity” value in assay [1] (Table 2, in words) was “Active”. With `CN(C)CCOC(c1ccc(Cl)cc1)c1ccccn1` (stereo not shown) [Carbinoxamine], the “In vitro M1 (Conc)” value at muscarinic M1 receptor was 740 nM. Take `OCCOCCN1CCN(C2=Nc3ccccc3Sc3ccccc32)CC1` [Quetiapine]: in assay [1] (Table 1, in words), the “OPC Cell Activity” value is “Active”. `O=C1CCCN1c1ccc(Oc2ccc3c(c2)CCN(C2CCC2)CC3)nc1` [GSK-239512]: in assay [1] (Table 2), the “OPC Cell Activity” value was in the range of 120 to 160 nM.

Take `CC(C)[N+](C)(CCOC(=O)C1c2ccccc2Oc2ccccc21)C(C)C` [Propantheline]: at muscarinic M1 receptor, the “In vitro M1 (Conc)” value was 0.22 nM. Moreover, the “OPC Cell Activity” value in assay [1] (Table 1) was in the range of 1250 to 2950 nM.

`C[N+]1(C)[C@@H]2CC[C@H]1C[C@@H](OC(=O)C(CO)c1ccccc1)C2` (stereo partly shown) [Methylatropine]: the “OPC Cell Activity” value in assay [1] (Table 1, in words) is “Active”. On to `CCN(CC)CC1CCCCN1CC(=O)N1c2ccccc2C(=O)Nc2cccnc21` (stereo not shown) [AF-DX 116], for which the “In vitro M1 (Conc)” value at muscarinic M1 receptor was 417 nM.

For the compound `CC(CN(C)C)CN1c2ccccc2Sc2ccccc21` (stereo not shown) [Alimemazine], the “In vitro M1 (Conc)” value at muscarinic M1 receptor was 398 nM.

In the case of Aminobenzotropine, the “OPC Cell Activity” value in assay [1] (Table 1, in words) is listed as “Active”. For the compound `CN1[C@@H]2CC[C@H]1C[C@@H](OC(c1ccccc1)c1ccccc1)C2` [Benztropine], the “OPC Cell Activity” value in assay [1] (Table 1) was in the range of 170 to 350 nM.

In the case of `CN(C)CCN(Cc1ccccc1)c1ccccn1` [Tripelennamine], the “In vitro M1 (Conc)” value at muscarinic M1 receptor is recorded as 1,3000 nM. Moreover, the “OPC Cell Activity” value in assay [1] (Table 1, in words) is reported as “Active”. Take `CN(C)CCC[C@@]1(c2ccc(F)cc2)OCc2cc(C#N)ccc21` [Escitalopram]: in assay [1] (Table 1, in words), the “OPC Cell Activity” value is reported as “Active”. Turning to `C[N+]1(C)CCC(OC(=O)C(O)(c2ccccc2)C2CCCC2)C1` (stereo not shown) [Glycopyrronium bromide], on muscarinic M1 receptor, the “In vitro M1 (Conc)” value is listed as 0.42 nM.

As for `C[C@@H]1CCCN1CCCOc1ccc(-c2ccc(=O)[nH]n2)cc1` [Irdabisant], the “OPC Cell Activity” value in assay [1] (Table 2) is 250 nM. Turning to `CCCCCCCCOc1ccccc1C(=O)Nc1ccc(C(=O)OCC[N+](C)(CC)CC)cc1` [Octylonium bromide], the “In vitro M1 (Conc)” value at muscarinic M1 receptor is 2 nM. In addition, the “OPC Cell Activity” value in assay [1] (Table 1, in words) is reported as “Active”. In the case of `Cc1noc(C)c1S(=O)(=O)N1CCN(c2ccc(N3CCCC(C)(C)C3)nn2)CC1` [VU6009833], the “In vitro M1 (Conc)” value on muscarinic M1 receptor is on record as 288 nM.

For `CC(C1=C(CCN(C)C)Cc2ccccc21)c1ccccn1` (stereo not shown) [Dimetindene], the “In vitro M1 (Conc)” value at muscarinic M1 receptor was 320 nM. Take `CC(CN1c2ccccc2Sc2cccnc21)N(C)C` (stereo not shown) [Isothipendyl]: the “In vitro M1 (Conc)” value at muscarinic M1 receptor is 74 nM. `OC(CCN1CCCCC1)(c1ccccc1)C1CC2C=CC1C2` (stereo not shown) [Biperiden]: the “In vitro M1 (Conc)” value on muscarinic M1 receptor is reported as 0.85 nM. With `NC(=NCc1ccc(Cl)cc1)SCCCc1cnc[nH]1` [Clobenpropit], in assay [1] (Table 2), the “OPC Cell Activity” value turned out to be 125 nM. On to `C[N+]1(C)CCCCC1COC(=O)C(O)(c1ccccc1)c1ccccc1` (stereo not shown) [Bevonium], for which the “OPC Cell Activity” value in assay [1] (Table 1, in words) was “Active”.

Take `CN1[C@@H]2CC[C@H]1C[C@@H](OC(=O)[C@H](CO)c1ccccc1)C2` [Hyoscyamine]: in assay [1] (Table 1, in words), the “OPC Cell Activity” value is listed as “Active”. `NC(=O)C(c1ccccc1)(c1ccccc1)[C@@H]1CCN(CCc2ccc3c(c2)CCO3)C1` [Darifenacin]: the “OPC Cell Activity” value in assay [1] (Table 1, in words) was “Active”.

For `CCN(CC)CCOCCOC(=O)C1(c2ccccc2)CCCC1` [Pentoxyverine, carbetapentane, Pentoxyverine], the “In vitro M1 (Conc)” value at muscarinic M1 receptor was 13 to 76 nM. For the same compound, the “OPC Cell Activity” value in assay [1] (Table 1) is on record as 260 nM. As for `OC(CCN1CCCCC1)(c1ccccc1)C1CCCCC1` (stereo not shown) [Trihexyphenidyl], the “OPC Cell Activity” value in assay [1] (Table 1, in words) is “Active”. In the case of `Cc1ccc(O)c([C@H](CCN(C(C)C)C(C)C)c2ccccc2)c1` [Tolterodine], on muscarinic M1 receptor, the “In vitro M1 (Conc)” value is given as 190 nM. As for `Cc1ccc(/C(=C\CN2CCCC2)c2ccccn2)cc1` [Triprolidine], the “In vitro M1 (Conc)” value on muscarinic M1 receptor is reported as 15000 nM. With `CN1CCc2c(c3ccccc3n2Cc2ccccc2)C1` [Mebhydrolin], the “In vitro M1 (Conc)” value on muscarinic M1 receptor was 180 nM.

In the case of `O=C(O[C@H]1C[N+]2(CCCOc3ccccc3)CCC1CC2)C(O)(c1cccs1)c1cccs1` [Aclidinium bromide], the “In vitro M1 (Conc)” value on muscarinic M1 receptor is given as 0.10 nM.

Take `CCN(CC)CC#CCOC(=O)C(O)(c1ccccc1)C1CCCCC1` (stereo not shown) [Oxybutynin]: in assay [1] (Table 1), the “OPC Cell Activity” value amounted to 670 nM.

On to `CN1CCCN(C(c2ccccc2)c2ccc(Cl)cc2)CC1` (stereo not shown) [Homochlorcyclizine], for which the “In vitro M1 (Conc)” value at muscarinic M1 receptor was 22 nM. Turning to `CN1CCCCC1CCN1c2ccccc2Sc2ccc([S+](C)[O-])cc21` (stereo not shown) [Mesoridazine], the “In vitro M1 (Conc)” value on muscarinic M1 receptor is recorded as 10 nM. As for `CN1CCCC(n2nc(Cc3ccc(Cl)cc3)c3ccccc3c2=O)CC1` (stereo not shown) [Azelastine], the “In vitro M1 (Conc)” value on muscarinic M1 receptor is given as 4,200 nM. On to `C[N+]1(C)[C@@H]2C[C@@H](OC(=O)C(O)(c3cccs3)c3cccs3)C[C@H]1[C@@H]1O[C@@H]12` [Tiotropium bromide], for which, on muscarinic M1 receptor, the “In vitro M1 (Conc)” value is given as 0.13 nM. Besides, the “OPC Cell Activity” value in assay [1] (Table 1, in words) is reported as “Active”. Consider `OCCOCCN1CCN(C(c2ccccc2)c2ccc(Cl)cc2)CC1` (stereo not shown) [Hydroxyzine], for which the “In vitro M1 (Conc)” value on muscarinic M1 receptor was 3,800 nM. The “OPC Cell Activity” value in assay [1] (Table 1, in words) was “Active”. Consider `Clc1ccc(CCCOCCCN2CCCCC2)cc1` [Pitolisant (tiprolisant), Pitolisant], for which, in assay [1] (Table 2), the “OPC Cell Activity” value lay in the range of 14 to 100 nM. In addition, the “dose sparing activity with respect to the other agent” value in assay [2] (clemastine fumarate 0 to 5 μM combined with pitolisant hydrochloride 0 to 2 μM) is reported as “dose sparing activity”. The “OPC differentiation (% of MBP+ cells)” value in assay [2] (pitolisant hydrochloride alone, 0 to 2 μM) is reported as “induce OPC differentiation”. Regarding `CCCC(CCC)C(=O)O[C@H]1C[C@H]2CC[C@@H](C1)[N+]2(C)C` [Octatropine methylbromide], the “OPC Cell Activity” value in assay [1] (Table 1, in words) is on record as “Active”. In the case of `CN(CCCN1c2ccccc2CCc2ccccc21)CC(=O)c1ccc(Cl)cc1` [Lofepramine], the “In vitro M1 (Conc)” value at muscarinic M1 receptor was 67 nM.

Turning to `CC(CN(C)C)CN1c2ccccc2Sc2ccc(C#N)cc21` (stereo not shown) [Cyamemazine], the “In vitro M1 (Conc)” value at muscarinic M1 receptor is given as 11 nM. As to `CN(C)CCCN1c2ccccc2Sc2ccc(Cl)cc21` [Chlorpromazine], the “OPC Cell Activity” value in assay [1] (Table 1, in words) is recorded as “Active”. Same read-out and setting: in the case of `CCCNCC(O)COc1ccccc1C(=O)CCc1ccccc1` (stereo not shown) [Propafenone] it was “Active”. For `C[N+]1(C)CCCC(OC(=O)C(O)(c2ccccc2)c2ccccc2)C1` (stereo not shown) [Mepenzolate], the “In vitro M1 (Conc)” value on muscarinic M1 receptor is 27 nM. Further, in assay [1] (Table 1, in words), the “OPC Cell Activity” value is “Active”.
